The kinase profiling compilation of Christmann-Franck et al. (2016)

Key:
Assay in all cases: KINOMEscan competition binding
Details in all cases: compound 10.0 µM
[1] = biological target: MAP3K4 (human) (UniProt Q9Y6R4)
[2] = biological target: ROCK1 (human) (UniProt Q13464)
[3] = biological target: IKBKB (human) (UniProt O14920)
[4] = biological target: CDK3 (human) (UniProt Q00526)
[5] = biological target: MAPK10 (human) (UniProt P53779)
[6] = biological target: FLT3 (human) (UniProt P36888)
[7] = biological target: PRKAA2 (human) (UniProt P54646)
[8] = biological target: RET (human) (UniProt P07949)
[9] = biological target: TYK2 JH2 pseudokinase (human) (UniProt P29597)
[10] = biological target: FGFR1 (human) (UniProt P11362)
[11] = biological target: PRKCE (human) (UniProt Q02156)
[12] = biological target: MAP3K1 (human) (UniProt Q13233)
[13] = biological target: BMPR1A (human) (UniProt P36894)
[14] = biological target: PIM2 (human) (UniProt Q9P1W9)
[15] = biological target: CLK1 (human) (UniProt P49759)
[16] = biological target: SRPK3 (human) (UniProt Q9UPE1)
[17] = biological target: GRK4 (human) (UniProt P32298)
[18] = biological target: CDK15 (human) (UniProt Q96Q40)
[19] = biological target: MAP3K7 (human) (UniProt O43318)
[20] = biological target: PRKAA1 (human) (UniProt Q13131)
[21] = biological target: MAPKAPK2 (human) (UniProt P49137)
[22] = biological target: STK36 (human) (UniProt Q9NRP7)
[23] = biological target: LRRK2 (human) (UniProt Q5S007)
[24] = biological target: NLK (human) (UniProt Q9UBE8)
[25] = biological target: MAP3K5 (human) (UniProt Q99683)
[26] = biological target: HIPK1 (human) (UniProt Q86Z02)
[27] = biological target: MAPK4 (human) (UniProt P31152)
[28] = biological target: TAOK3 (human) (UniProt Q9H2K8)
[29] = biological target: PIM3 (human) (UniProt Q86V86)
[30] = biological target: STK25 (human) (UniProt O00506)
[31] = biological target: MARK1 (human) (UniProt Q9P0L2)
[32] = biological target: CDC42BPA (human) (UniProt Q5VT25)
[33] = biological target: TIE1 (human) (UniProt P35590)
[34] = biological target: SIK1 (human) (UniProt P57059)
[35] = biological target: ACVR1B (human) (UniProt P36896)
[36] = biological target: PRKG2 (human) (UniProt Q13237)
[37] = biological target: PDGFRA (human) (UniProt P16234)
[38] = biological target: TNNI3K (human) (UniProt Q59H18)
[39] = biological target: CSK (human) (UniProt P41240)
[40] = biological target: STK17A (human) (UniProt Q9UEE5)
Sequence of STK17A (human) (Q9UEE5 whole entry, looked up): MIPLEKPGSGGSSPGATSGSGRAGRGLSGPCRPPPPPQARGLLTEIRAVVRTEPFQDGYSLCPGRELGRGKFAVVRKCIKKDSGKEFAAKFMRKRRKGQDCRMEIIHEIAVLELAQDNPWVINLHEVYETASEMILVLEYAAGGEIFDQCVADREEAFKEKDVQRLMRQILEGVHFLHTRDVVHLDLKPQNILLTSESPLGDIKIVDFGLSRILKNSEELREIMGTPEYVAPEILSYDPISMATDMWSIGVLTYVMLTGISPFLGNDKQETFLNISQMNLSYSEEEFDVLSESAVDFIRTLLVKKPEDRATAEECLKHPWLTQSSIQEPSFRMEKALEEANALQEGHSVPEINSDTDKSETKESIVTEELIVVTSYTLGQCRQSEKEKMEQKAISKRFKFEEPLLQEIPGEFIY

Sequence of MAP3K4 (human) (Q9Y6R4 whole entry, looked up): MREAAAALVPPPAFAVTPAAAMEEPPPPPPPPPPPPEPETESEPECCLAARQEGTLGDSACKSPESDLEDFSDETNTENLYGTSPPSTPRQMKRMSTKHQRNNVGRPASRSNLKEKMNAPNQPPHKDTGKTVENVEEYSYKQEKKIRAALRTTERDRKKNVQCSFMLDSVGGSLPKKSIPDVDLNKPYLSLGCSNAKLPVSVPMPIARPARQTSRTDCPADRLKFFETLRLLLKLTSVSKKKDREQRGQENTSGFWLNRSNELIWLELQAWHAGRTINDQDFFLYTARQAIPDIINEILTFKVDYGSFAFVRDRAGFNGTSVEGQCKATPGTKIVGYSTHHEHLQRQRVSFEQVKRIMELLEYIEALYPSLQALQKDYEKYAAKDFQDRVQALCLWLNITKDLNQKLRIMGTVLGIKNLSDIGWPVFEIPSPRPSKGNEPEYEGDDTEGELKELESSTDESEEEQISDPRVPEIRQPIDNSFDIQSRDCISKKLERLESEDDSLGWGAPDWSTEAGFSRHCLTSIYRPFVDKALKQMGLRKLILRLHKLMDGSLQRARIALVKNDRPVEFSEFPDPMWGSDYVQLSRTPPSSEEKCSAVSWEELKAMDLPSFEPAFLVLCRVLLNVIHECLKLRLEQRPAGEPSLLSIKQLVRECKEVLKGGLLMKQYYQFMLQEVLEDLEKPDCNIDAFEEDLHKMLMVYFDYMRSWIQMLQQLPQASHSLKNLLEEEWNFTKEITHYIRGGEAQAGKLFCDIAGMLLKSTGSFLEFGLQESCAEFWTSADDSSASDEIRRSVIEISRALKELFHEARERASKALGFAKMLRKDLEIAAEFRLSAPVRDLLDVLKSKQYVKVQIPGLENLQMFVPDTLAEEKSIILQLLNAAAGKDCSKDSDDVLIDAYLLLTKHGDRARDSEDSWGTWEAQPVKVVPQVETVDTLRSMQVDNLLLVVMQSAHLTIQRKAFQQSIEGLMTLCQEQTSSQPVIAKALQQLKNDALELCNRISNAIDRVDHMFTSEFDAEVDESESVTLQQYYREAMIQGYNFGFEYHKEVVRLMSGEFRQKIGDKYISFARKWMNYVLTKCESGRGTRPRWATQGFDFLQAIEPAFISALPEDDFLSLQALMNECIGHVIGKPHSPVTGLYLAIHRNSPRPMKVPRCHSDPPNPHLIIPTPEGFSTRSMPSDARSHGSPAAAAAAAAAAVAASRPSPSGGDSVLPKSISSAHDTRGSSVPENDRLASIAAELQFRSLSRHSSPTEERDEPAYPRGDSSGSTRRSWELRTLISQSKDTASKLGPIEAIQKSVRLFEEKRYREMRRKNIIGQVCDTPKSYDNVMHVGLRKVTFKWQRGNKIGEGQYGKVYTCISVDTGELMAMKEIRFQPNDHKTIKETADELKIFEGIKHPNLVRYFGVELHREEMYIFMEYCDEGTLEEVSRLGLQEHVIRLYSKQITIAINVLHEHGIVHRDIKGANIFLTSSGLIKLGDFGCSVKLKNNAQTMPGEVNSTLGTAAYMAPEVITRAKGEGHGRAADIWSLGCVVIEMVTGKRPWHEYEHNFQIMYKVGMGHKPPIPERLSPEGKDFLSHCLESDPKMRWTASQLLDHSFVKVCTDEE
Sequence of CDC42BPA (human) (Q5VT25 whole entry, looked up): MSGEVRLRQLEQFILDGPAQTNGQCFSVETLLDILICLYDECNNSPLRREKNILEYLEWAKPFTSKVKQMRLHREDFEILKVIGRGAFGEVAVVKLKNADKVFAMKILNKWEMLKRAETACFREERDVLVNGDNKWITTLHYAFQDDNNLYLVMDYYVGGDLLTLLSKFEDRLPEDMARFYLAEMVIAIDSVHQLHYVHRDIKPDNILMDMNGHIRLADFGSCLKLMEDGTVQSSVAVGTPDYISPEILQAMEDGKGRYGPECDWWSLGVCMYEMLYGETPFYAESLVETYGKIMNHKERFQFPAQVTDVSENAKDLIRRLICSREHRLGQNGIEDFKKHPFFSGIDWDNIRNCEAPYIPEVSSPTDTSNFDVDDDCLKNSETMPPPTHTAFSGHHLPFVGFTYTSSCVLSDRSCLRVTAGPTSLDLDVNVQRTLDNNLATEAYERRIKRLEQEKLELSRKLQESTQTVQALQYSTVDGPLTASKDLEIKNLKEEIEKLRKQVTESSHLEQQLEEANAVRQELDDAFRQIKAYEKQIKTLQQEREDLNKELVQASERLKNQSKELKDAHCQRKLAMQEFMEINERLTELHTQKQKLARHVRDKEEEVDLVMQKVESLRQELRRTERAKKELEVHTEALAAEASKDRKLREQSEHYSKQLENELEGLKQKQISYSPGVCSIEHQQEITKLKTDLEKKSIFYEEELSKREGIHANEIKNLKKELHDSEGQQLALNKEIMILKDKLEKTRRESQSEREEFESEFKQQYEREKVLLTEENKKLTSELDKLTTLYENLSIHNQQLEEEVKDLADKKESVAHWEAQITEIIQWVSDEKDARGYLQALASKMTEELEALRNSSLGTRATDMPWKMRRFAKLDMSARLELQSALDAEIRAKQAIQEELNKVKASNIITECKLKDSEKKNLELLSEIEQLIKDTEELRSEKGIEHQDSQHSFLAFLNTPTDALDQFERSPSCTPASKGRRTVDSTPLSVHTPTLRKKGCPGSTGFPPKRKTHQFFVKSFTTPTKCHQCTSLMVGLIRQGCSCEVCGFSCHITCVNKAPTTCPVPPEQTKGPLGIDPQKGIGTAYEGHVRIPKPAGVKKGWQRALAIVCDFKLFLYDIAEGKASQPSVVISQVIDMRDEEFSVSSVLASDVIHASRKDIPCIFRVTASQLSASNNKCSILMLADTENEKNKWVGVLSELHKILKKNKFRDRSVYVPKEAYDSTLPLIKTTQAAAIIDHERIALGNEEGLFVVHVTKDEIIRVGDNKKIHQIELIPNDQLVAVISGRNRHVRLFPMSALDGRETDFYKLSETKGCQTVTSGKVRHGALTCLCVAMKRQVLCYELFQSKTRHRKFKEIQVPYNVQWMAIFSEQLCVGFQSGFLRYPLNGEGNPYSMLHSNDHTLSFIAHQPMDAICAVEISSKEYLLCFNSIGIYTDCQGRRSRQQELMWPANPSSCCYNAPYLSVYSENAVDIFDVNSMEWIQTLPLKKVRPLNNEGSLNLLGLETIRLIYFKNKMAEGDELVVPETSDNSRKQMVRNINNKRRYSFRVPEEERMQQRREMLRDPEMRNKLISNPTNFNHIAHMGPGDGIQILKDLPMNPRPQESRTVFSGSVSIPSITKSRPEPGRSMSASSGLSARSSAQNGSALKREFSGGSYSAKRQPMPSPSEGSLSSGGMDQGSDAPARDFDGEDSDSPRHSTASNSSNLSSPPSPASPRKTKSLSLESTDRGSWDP
Sequence of MAP3K7 (human) (O43318 whole entry, looked up): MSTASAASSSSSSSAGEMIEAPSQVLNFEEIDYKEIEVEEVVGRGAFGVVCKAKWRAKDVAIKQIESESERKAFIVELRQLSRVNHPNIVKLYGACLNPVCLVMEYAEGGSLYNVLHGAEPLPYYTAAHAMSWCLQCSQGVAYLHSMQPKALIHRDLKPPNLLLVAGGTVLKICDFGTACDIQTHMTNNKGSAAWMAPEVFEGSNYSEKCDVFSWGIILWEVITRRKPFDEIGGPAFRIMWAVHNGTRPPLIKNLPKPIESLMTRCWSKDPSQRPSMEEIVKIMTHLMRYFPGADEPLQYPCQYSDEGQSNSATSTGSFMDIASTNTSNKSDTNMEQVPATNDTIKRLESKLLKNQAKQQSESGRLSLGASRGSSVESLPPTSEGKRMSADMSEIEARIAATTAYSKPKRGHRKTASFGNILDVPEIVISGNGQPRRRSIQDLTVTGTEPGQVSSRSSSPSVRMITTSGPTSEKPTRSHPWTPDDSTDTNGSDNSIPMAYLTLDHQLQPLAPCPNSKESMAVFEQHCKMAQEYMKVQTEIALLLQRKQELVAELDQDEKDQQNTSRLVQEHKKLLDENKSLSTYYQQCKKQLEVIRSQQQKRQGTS
Sequence of SRPK3 (human) (Q9UPE1 whole entry, looked up): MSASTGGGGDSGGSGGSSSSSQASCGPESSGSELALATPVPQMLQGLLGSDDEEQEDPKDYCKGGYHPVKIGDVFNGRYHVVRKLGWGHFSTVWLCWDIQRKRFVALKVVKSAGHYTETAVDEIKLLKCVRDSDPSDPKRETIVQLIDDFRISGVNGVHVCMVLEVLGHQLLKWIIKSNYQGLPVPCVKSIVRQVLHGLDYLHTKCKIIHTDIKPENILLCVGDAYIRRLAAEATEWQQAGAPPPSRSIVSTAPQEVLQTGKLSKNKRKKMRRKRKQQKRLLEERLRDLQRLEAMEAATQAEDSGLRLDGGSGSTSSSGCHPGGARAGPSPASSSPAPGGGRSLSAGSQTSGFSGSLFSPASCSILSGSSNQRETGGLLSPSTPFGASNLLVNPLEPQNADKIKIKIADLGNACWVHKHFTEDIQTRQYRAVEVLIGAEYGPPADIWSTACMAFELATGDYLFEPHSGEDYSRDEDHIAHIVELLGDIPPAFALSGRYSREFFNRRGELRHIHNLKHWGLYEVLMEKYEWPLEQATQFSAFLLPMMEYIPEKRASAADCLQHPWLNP

| Structure (SMILES) | kinase still bound, per cent of control [1] | kinase still bound, per cent of control [2] | kinase still bound, per cent of control [3] | kinase still bound, per cent of control [4] | kinase still bound, per cent of control [5] | kinase still bound, per cent of control [6] | kinase still bound, per cent of control [7] | kinase still bound, per cent of control [8] | kinase still bound, per cent of control [9] | kinase still bound, per cent of control [10] | kinase still bound, per cent of control [11] | kinase still bound, per cent of control [12] | kinase still bound, per cent of control [13] | kinase still bound, per cent of control [14] | kinase still bound, per cent of control [15] | kinase still bound, per cent of control [16] | kinase still bound, per cent of control [17] | kinase still bound, per cent of control [18] | kinase still bound, per cent of control [19] | kinase still bound, per cent of control [20] | also measured |
| --- | --- | --- | --- | --- | --- | --- | --- | --- | --- | --- | --- | --- | --- | --- | --- | --- | --- | --- | --- | --- | --- |
| COCC(=O)NC/C=C/c1ccc2ncnc(Nc3ccc(Oc4ccc(C)nc4)c(C)c3)c2c1 | 97% | 100% | 100% | 100% | 68% | 100% | 100% | 87% | 24% | 100% | 100% | 100% | 17% | 100% | 90% | 100% | 100% | 71% | 100% | 89% | kinase still bound, per cent of control [21]: 100%; kinase still bound, per cent of control [22]: 100%; kinase still bound, per cent of control [23]: 100%; kinase still bound, per cent of control [24]: 100%; kinase still bound, per cent of control [25]: 90%; kinase still bound, per cent of control [26]: 88%; kinase still bound, per cent of control [27]: 100%; kinase still bound, per cent of control [28]: 100%; kinase still bound, per cent of control [29]: 100%; kinase still bound, per cent of control [30]: 94%; kinase still bound, per cent of control [31]: 100%; kinase still bound, per cent of control [32]: 100%; kinase still bound, per cent of control [33]: 100%; kinase still bound, per cent of control [34]: 100%; kinase still bound, per cent of control [35]: 100%; kinase still bound, per cent of control [36]: 100%; kinase still bound, per cent of control [37]: 56%; kinase still bound, per cent of control [38]: 100%; kinase still bound, per cent of control [39]: 59%; kinase still bound, per cent of control [40]: 84% |
| COc1cc2ncnc(-n3nc(-c4ccccn4)nc3N)c2cc1OC | 100% | 21% | 45% | 82% | 1.4% | 20% | 27% | 20% | 0% | 65% | 65% | 66% | 0.3% | 78% | 0.6% | 38% | 39% | 88% | 15% | 19% | kinase still bound, per cent of control [21]: 100%; kinase still bound, per cent of control [22]: 7.4%; kinase still bound, per cent of control [23]: 41%; kinase still bound, per cent of control [24]: 6.6%; kinase still bound, per cent of control [25]: 100%; kinase still bound, per cent of control [26]: 0.55%; kinase still bound, per cent of control [27]: 85%; kinase still bound, per cent of control [28]: 39%; kinase still bound, per cent of control [29]: 7.6%; kinase still bound, per cent of control [30]: 33%; kinase still bound, per cent of control [31]: 86%; kinase still bound, per cent of control [32]: 99%; kinase still bound, per cent of control [33]: 93%; kinase still bound, per cent of control [34]: 45%; kinase still bound, per cent of control [35]: 14%; kinase still bound, per cent of control [36]: 75%; kinase still bound, per cent of control [37]: 57%; kinase still bound, per cent of control [38]: 80%; kinase still bound, per cent of control [39]: 43%; kinase still bound, per cent of control [40]: 1.6% |
